Source: paper PMC4804716 (The FEBS journal, 2015)
Substitutions are numbered along the chain they refer to. Where two headings read alike, the source gives them in different places.

How the values were obtained:
[1] = Cyclic voltammetry of menadione derivatives; assay type: physicochemical; settings: for Epa1 / Epc2 / Ipc1/Ipa1 / E^1½ / ΔEp (first wave): DMSO; for Epa1 / Epc2: 0.1 M n-Bu4NPF6, v = 200 mV s^−1, reference KCl(3 M)/Ag/AgCl; for Epa1 / Ipc1/Ipa1 / E^1½: first wave; for Epc2 / E^2½ / Epa2 / Ipc2/Ipa2 / ΔEp (second wave): second wave; for Ipc1/Ipa1 / ΔEp (first wave): 0.1 M n-Bu4NPF6, v = 200 mV s^−1; for E^1½ / E^2½: E½ = (Epc+Epa)/2; for E^1½: 0.1 M n-Bu4NPF6, reference KCl(3 M)/Ag/AgCl; for E^2½ / Epa2 / Ipc2/Ipa2 / ΔEp (second wave): irr: irreversible reduction; for ΔEp (first wave) / ΔEp (second wave): ΔE = Epa-Epc; for ΔE½: ΔE½ = E^1½-E^2½
[2] = target: T1, Schistosoma mansoni thioredoxin glutathione reductase (SmTGR) (Schistosoma mansoni, UniProt Q962Y6); test: SmTGR DTNB assay; assay type: biochemical
T1 sequence (Q962Y6 1-598): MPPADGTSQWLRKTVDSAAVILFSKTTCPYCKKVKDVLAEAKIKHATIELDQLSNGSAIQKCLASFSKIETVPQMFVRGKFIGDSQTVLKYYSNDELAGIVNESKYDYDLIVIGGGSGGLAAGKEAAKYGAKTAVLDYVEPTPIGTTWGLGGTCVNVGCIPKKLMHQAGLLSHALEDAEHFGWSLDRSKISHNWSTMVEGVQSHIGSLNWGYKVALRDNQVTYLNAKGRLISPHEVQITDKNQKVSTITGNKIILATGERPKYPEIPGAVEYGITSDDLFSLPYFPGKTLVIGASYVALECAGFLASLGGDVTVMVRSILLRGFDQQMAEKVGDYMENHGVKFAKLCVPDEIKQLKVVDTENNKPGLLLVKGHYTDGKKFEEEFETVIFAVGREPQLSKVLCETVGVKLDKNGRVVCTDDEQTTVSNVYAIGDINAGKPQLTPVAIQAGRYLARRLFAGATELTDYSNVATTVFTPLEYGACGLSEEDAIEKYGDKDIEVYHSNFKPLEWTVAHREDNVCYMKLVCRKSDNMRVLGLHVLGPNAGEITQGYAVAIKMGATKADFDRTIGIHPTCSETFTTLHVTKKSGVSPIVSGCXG

[3] = target: T2, human glutathione reductase (hGR) (Homo sapiens, UniProt P00390); test: hGR assay; assay type: biochemical
T2 sequence (P00390 1-479 isoform P00390-2): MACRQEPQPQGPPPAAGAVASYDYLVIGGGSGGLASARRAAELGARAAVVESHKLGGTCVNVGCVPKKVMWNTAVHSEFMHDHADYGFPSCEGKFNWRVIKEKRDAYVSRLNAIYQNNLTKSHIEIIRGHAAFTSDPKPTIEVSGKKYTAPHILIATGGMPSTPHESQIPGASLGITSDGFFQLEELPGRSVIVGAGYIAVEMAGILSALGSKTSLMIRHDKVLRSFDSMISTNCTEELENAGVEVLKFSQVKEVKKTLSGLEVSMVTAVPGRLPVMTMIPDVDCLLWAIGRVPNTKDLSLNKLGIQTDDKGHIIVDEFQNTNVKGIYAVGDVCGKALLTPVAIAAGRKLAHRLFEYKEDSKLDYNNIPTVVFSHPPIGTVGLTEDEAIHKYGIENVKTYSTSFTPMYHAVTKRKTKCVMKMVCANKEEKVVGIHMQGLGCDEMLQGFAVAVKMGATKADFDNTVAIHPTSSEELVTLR

Placenta wild type hTrxR [4] = target: T3, Placenta wild type hTrxR (Homo sapiens, UniProt Q16881); test: hTrxR Trx assay; assay type: biochemical; settings: for IC50: IC50 hTrxR, text summary spanning the Trx assay and the DTNB assay; for IC50 fold higher for hTrxR than for SmTGR: selectivity hTrxR versus SmTGR
T3 sequence (Q16881 1-499 isoform Q16881-5): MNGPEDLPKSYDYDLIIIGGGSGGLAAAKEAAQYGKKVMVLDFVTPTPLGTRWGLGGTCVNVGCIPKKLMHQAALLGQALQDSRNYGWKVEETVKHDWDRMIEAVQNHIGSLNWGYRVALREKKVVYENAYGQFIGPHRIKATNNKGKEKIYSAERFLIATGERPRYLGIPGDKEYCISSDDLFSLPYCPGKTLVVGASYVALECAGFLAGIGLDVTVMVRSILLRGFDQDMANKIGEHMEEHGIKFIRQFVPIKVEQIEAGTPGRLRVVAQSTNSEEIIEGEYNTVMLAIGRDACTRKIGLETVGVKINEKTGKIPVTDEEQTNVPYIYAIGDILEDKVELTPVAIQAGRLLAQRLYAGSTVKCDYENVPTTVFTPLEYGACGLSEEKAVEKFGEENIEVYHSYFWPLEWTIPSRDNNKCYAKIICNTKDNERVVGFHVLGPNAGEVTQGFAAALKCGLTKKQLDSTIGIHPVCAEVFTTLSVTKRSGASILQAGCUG

Placenta wild type hTrxR [5] = target: T3, Placenta wild type hTrxR; test: hTrxR DTNB assay; assay type: biochemical
Sec498Cys TrxR = target: T4, Sec498Cys TrxR (Homo sapiens, UniProt Q16881); test: hTrxR mutant DTNB assay; assay type: biochemical
T4 sequence (Q16881 with tags, fused parts or gaps isoform Q16881-5): T3 sequence (Q16881 1-499 isoform Q16881-5) with U498C

S. mansoni worms = test: Antischistosomal activity against adult, ex vivo worms; assay type: cell-based, Schistosoma mansoni; settings: for antischistosomal activity against cultured ex vivo worms: 50 μM compound alone
[6] = Cytotoxicity against human MRC-5 cells; assay type: cell-based; settings: human lung MRC-5 fibroblasts (MRC-5SV2 cells)
[7] = target: T1, Schistosoma mansoni thioredoxin glutathione reductase (SmTGR)
[8] = Glutathionylation reaction kinetics; assay type: physicochemical; settings: pH 7.5
[9] = 50 μM with hemoglobin 10 μM, 22h incubation

Epa1 [1]	Epc2 [1]	Ipc1/Ipa1 [1]	E^1½ [1]	E^2½ [1]	Epa2 [1]	Ipc2/Ipa2 [1]	ΔEp (first wave) [1]	ΔEp (second wave) [1]	IC50 [2]	IC50 [3]	IC50 (Placenta wild type hTrxR [4])	IC50 (Placenta wild type hTrxR [5])	IC50 (Sec498Cys TrxR)	Structure (SMILES)	antischistosomal activity against cultured ex vivo worms (S. mansoni worms)	other results
−0.492 V	−1.154 V	2.29	−0.556 V	−1.127 V	−1.100 V	2	128 mV	54 mV	462 nM	8500 nM	1200 to 1500 nM	1200 nM	6000 nM	CC1=C(COc2ccc(C#N)cc2)C(=O)c2ccccc2C1=O [Compound 2, 4-((3-Methyl-1,4-dioxo-1,4-dihydronaphthalen-2-yl)methoxy)benzonitrile]	(moderately) active	ΔE½ [1]: 571 mV; female worms killed (S. mansoni worms; [9]): 100%; male worms killed (S. mansoni worms; [9]): 50%
									407 nM	> 25000 nM	2000 nM	2000 nM	> 100000 nM	COc1c(F)cc(OCC2=C(C)C(=O)c3ccccc3C2=O)cc1F [Compound 3, 2-((3,5-Difluoro-4-methoxyphenoxy)methyl)-3-methylnaphthalene-1,4-dione]	most potent	
									457 nM	5500 nM	700 nM	700 nM	> 100000 nM	CC1=C(COc2ccc(Cl)cc2)C(=O)c2ccccc2C1=O [Compound 4, 2-((4-Chlorophenoxy)methyl)-3-methylnaphthalene-1,4-dione]		
	−1.158 V	1.89		irr	irr	irr	119 mV	irr	784 nM	> 5000 nM	800 nM	800 nM	> 100000 nM	CC1=C(COc2ccc(Br)cc2)C(=O)c2ccccc2C1=O [Compound 5, 2-((4-Bromophenoxy)methyl)-3-methylnaphthalene-1,4-dione]		
−0.506 V	−1.132 V	2.92	−0.563 V	−1.126 V	−1.120 V	1.75	114 mV		200 nM	12000 nM	800 to 1500 nM	1500 nM	> 50000 nM	COc1ccc(OCC2=C(C)C(=O)c3ccccc3C2=O)cc1C(F)(F)F [Compound 7, 2-((4-Methoxy-3-(trifluoromethyl)phenoxy)methyl)-3-methylnaphthalene-1,4-dione]	active	ΔE½ [1]: 563 mV; IC50 fold higher for hTrxR than for SmTGR (Placenta wild type hTrxR [4]): around 5 fold; survival rates in the presence versus absence of RBCs after 24 hours (S. mansoni worms; 50 μM, human red blood cells 10 μl/well, 24 hours): identical; dead parasites in the absence versus presence of RBCs after 48 hours (S. mansoni worms; 50 μM, human red blood cells 10 μl/well, 48 hours): more parasites were dead in the absence of RBCs than in the presence of RBCs; second order rate constant ki/KI [7]: 1180 M⁻¹ s⁻¹
−0.244 V		3.31	−0.329 V				170 mV		144 nM	2100 nM	13 to 14 nM	14 nM	370 nM	N#Cc1ccc(OCC2=C(C(F)F)C(=O)c3ccccc3C2=O)cc1 [Compound 8, 4-((3-(Difluoromethyl)-1,4-dioxo-1,4-dihydronaphthalen-2-yl)methoxy)benzonitrile]	inactive	decrease of the k2 values compared to the difluoromenadione itself [8]: ~10 fold; killing of worms whether RBCs were present or not (S. mansoni worms; 50 μM, with or without human red blood cells (10 μl/well)): no effect on killing the worms; IC50 at 3 days [6]: 6700 nM
														O.O.O.O=C([O-])[C@H]([O-])[C@@H]([O-])C(=O)[O-].O=C([O-])[C@H]([O-])[C@@H]([O-])C(=O)[O-].[K+].[K+].[Sb+3].[Sb+3] [PAT, potassium antimonyl tartrate, reference compound]		IC50 ([2]; read-out: IC50 SmTGR assay, pH 7, 25°C, 100 μM NADPH, 3 mM DTNB): 173 nM; dead worms (S. mansoni worms; drug reference, after two days): 100%

Structure (SMILES)	Epa1 [1]	Epc2 [1]	Ipc1/Ipa1 [1]	E^1½ [1]	E^2½ [1]	Epa2 [1]	Ipc2/Ipa2 [1]	ΔEp (first wave) [1]	ΔEp (second wave) [1]	IC50 [2]	IC50 [3]	IC50 (Placenta wild type hTrxR [4])	IC50 (Placenta wild type hTrxR [5])	IC50 (Sec498Cys TrxR)	antischistosomal activity against cultured ex vivo worms (S. mansoni worms)	other results
CC1=C(COc2ccc(C(=O)O)cc2)C(=O)c2ccccc2C1=O [Compound 1, 4-((3-Methyl-1,4-dioxo-1,4-dihydronaphthalen-2-yl)methoxy)benzoic acid]	−0.532 V	−1.265 V	1.27	−0.580 V	irr	irr	irr	96 mV	irr	482 nM	2300 nM	2000 to 3000 nM	3000 nM	40000 nM	able to kill cultured adult worms	IC50 at 3 days [6]: 6550 nM
CC1=C(COc2cccc(C(F)(F)F)c2)C(=O)c2ccccc2C1=O [Compound 6, 2-Methyl-3-((3-(trifluoromethyl)phenoxy)methyl)naphthalene-1,4-dione]										166 nM	600 nM	1500 to 3000 nM	1500 nM	> 50000 nM	inactive	IC50 fold higher for hTrxR than for SmTGR (Placenta wild type hTrxR [4]): around 10 fold
